Laboratory results from PubChem BioAssay AID1981 (Southern Research Specialized Biocontainment Screening …, 2009).

Test system: S. Typhimurium PhoP-promoter GFP reporter counterscreen, fluorescence, 4 h
Test: S. Typhimurium GFP fluorescence modified counterscreen for PhoP regulon inhibitor project dose response (AID 1981)

SMILES: CCN1CCN(C(c2cccnc2)c2cc(Cl)c3cccnc3c2O)CC1 (configuration not stated)
- IC50: 61.9 µM

SMILES: O=C1C=C(O)c2c(O)cc(O)c(O)c2C1=O
- IC50: 69.4 µM

SMILES: CN(C)[C@@H]1C(=O)C(C(N)=O)=C(O)[C@@]2(O)C(=O)C3=C(O)c4c(O)cccc4[C@@](C)(O)C3[C@H](O)C12 (some centres not stated)
- IC50: 1.34 µM

SMILES: O=C(Nc1ccccc1)Nc1ccc(Cl)c([N+](=O)[O-])c1
- IC50: 39.2 µM

SMILES: NC1=NC[C@H](Cc2ccccc2)N1CCCCC1CCCCC1
- IC50: 61.1 µM

SMILES: O=C(N/N=C/c1c[nH]c2ccccc12)c1cc(-c2ccc3ccccc3c2)n[nH]1
- IC50: 68.6 µM

SMILES: Cc1cc(NC(c2cccnc2)c2ccc3cccnc3c2O)no1 (configuration not stated)
- IC50: 130 µM

SMILES: Nc1cc2nsnc2cc1Br
- IC50: 30.1 µM

SMILES: CC(C)COc1ccc(Cc2cnc(N)nc2N)cc1
- IC50: 127 µM

SMILES: c1ccc(-c2nnc(-c3ccccn3)nc2NC2CCCCC2)cc1
- IC50: 148 µM

SMILES: O=C(O)C1Nc2c(O)cccc2C2C=CCC12 (configuration not stated)
- IC50: 64.9 µM

SMILES: Cc1conc1NC(c1cccs1)c1ccc2cccnc2c1O (configuration not stated)
- IC50: 36.8 µM

SMILES: CCn1cc(C(=O)NCCO)c(=O)c2cc(F)c(N3CCN(C)CC3)cc21
- IC50: 29.9 µM

SMILES: Fc1ccc(CCNCc2ccc(Cl)c(Cl)c2)cc1
- IC50: 109 µM

SMILES: C=CC#CC[N+]1(CC#Cc2ccccc2)CCOCC1
- IC50: 30.3 µM

SMILES: C#CCOCCOCCOCCNc1nc(N2CCN(C(=O)CCCCCCCCCCNC(=O)[C@H]([C@@H](C)CC)n3cc(CCCCN=C(N)N)nn3)CC2)nc(N2CCN(C(=O)CCCCCCCCCCNC(=O)[C@H](CCCN=C(N)N)n3cc(C[C@@H](C)CC)nn3)CC2)n1
- IC50: 30.6 µM

SMILES: CN(C)c1ccc(/C=C/c2ccc3ccccc3[n+]2C)cc1
- IC50: 26.9 µM

SMILES: O=[N+]([O-])c1cc(CN2CCOCC2)c2cccnc2c1O
- IC50: 64.3 µM

SMILES: Oc1ccc(/C=N/Nc2ncc(Br)cn2)c(O)c1
- IC50: 128 µM

SMILES: Oc1c(C(Nc2ccccn2)c2ccccn2)ccc2cccnc12 (configuration not stated)
- IC50: 55.2 µM

SMILES: CCOC(=O)C[n+]1c(C)sc2ccc(OC)cc21
- IC50: 133 µM

SMILES: CC[C@H]1OC(=O)[C@H](C)[C@@H](O[C@H]2C[C@@](C)(OC)[C@@H](O)[C@H](C)O2)[C@H](C)[C@@H](O[C@@H]2O[C@H](C)C[C@H](N(C)C)[C@H]2O)[C@](C)(O)C[C@@H](C)CN(C)[C@H](C)[C@@H](O)[C@]1(C)O
- IC50: 3.63 µM

SMILES: C/C(=N\Nc1ncnc2sc(C)c(C)c12)c1ccccn1
- IC50: 33.4 µM

SMILES: Clc1ccc(CN2CCC(c3nc4ccc(Cl)cc4[nH]3)CC2)cc1
- IC50: 51.7 µM

SMILES: CCCCCCCCNC(C)C(O)c1ccc(SC(C)C)cc1 (configuration not stated)
- IC50: 121 µM

SMILES: COc1c(N2CCN(C(=S)Nc3ccc(F)cc3)C(C)C2)c(F)cc2c(=O)c(C(=O)O)cn(C3CC3)c12 (configuration not stated)
- IC50: 2.68 µM

SMILES: COC12C(COC(N)=O)C3=C(C(=O)C(C)=C(N)C3=O)N1CC1C2N1C (configuration not stated)
- IC50: 65.8 µM

SMILES: CCOc1ccc(Nc2c3ccccc3nc3ccccc23)cc1
- IC50: 94 µM

SMILES: CCCc1nnc(NC(=O)c2cn(CC)c3cc(N4CCN(C)CC4)c(F)cc3c2=O)s1
- IC50: 109 µM

SMILES: O=C(NC(=S)NNC(=O)c1ccccc1O)c1ccco1
- IC50: 41.8 µM

SMILES: C[C@H]1O[C@@H](n2cc(F)c(=O)[nH]c2=O)[C@H](O)[C@@H]1O
- IC50: 11.8 µM

SMILES: CN1CCN(C(c2ccc(Cl)cc2)c2cc(Cl)c3cccnc3c2O)CC1 (configuration not stated)
- IC50: 32.9 µM

SMILES: CS(=O)(=O)c1ccc([C@@H](O)[C@@H](CF)NC(=O)C(Cl)Cl)cc1
- IC50: 7.98 µM

SMILES: COC(=O)C1C(O)C(C)C(O)C(C)/C=C\C=C(/C)C(=O)Nc2c(C)c(OC(C)=O)c3c(c2O)C(=O)C(C)=C2OCOC(=C23)/C(C)=C/C(C)(O)C(O)C(C)C1O (configuration not stated)
- IC50: 23.5 µM

SMILES: Nc1nonc1C(=O)N/N=C/c1cc(Br)ccc1O
- IC50: 13 µM

SMILES: CC[C@@H](C)[C@H](CNC)NC[C@@H](Cc1cccc2ccccc12)NCCc1cccc(C(F)(F)F)c1
- IC50: 39.9 µM

SMILES: O=C(CSc1nc2ccccc2s1)N/N=C/c1cc([N+](=O)[O-])ccc1O
- IC50: 85.3 µM

SMILES: COc1ccc(C(=O)N/N=C/c2sc3ccccc3c2O)cc1
- IC50: 109 µM

SMILES: Nc1nc2ccccc2n1Cc1ccc(Cl)c(Cl)c1
- IC50: 85.6 µM

SMILES: Oc1ccc(CNc2ccccc2F)c2cccnc12
- IC50: 76.5 µM

SMILES: Oc1c(C(c2ccccn2)N2CCOCC2)ccc2cccnc12 (configuration not stated)
- IC50: 118 µM

SMILES: c1cnc2c(c1)ccc1cccnc12
- IC50: 40 µM
